In brackets after ≈: the same amount, converted by molar mass. Like-named read-outs stand apart in the source and are kept apart here.
Tests used:
[1] = rat, in vivo, po, 50 mg/kg
[2] = 6 day q.d. intraperitoneal toxicology in mice; assay type: in vivo
Source text: Alternatively, drug delivery by aerosol (nasal spray) administration may immediately achieve therapeutic levels of drug in the nasal mucosa and the brain.

[3] = in vivo; conditions: male, SD, rat, po, 50 mg/kg
[4] = Rodent pharmacokinetic experiment in mice; assay type: in vivo, DBA-1J mice; conditions: female, DBA-1J, mouse, plasma, after IV dosing, read-out: plasma T1/2 (converted)
[5] = system: CEM cells; experiment: Cytotoxicity profile, selectivity index in CEM cells; assay type: cell-based; conditions: CEM cells (low of range)
[6] = system: CHIK virus; experiment: Mouse model of Chikungunya infection; conditions: CHIKV challenged mice, 25 or 35 mg/kg i.p.
[7] = system: CHIKV
[8] = Rodent pharmacokinetic experiment in mice; assay type: in vivo, DBA-1J mice; conditions: for concentration at 24 hr: read-out: 24 hr plasma levels
Procedure: DBA-1J mice (6-8 weeks old, female) were acclimated for ≥2 days after receipt. Mice were weighed the day before dosing to calculate dosing volumes. Mice were dosed by oral gavage with drug at 30 mg/kg, 100 mg/kg & 300 mg/kg. The mice were sampled at […] time points: 0.5, 1, 2, 3, 4, 8 and 24 hrs (3 mice per time point for test drug). The mice were euthanized and their organs were collected (see below). In order to collected blood, mice with euthanized by CO2 at the appropriate time point listed above. Blood was obtained by cardiac puncture (0.3 ml) at each time point. Following blood collection, the organs were removed from the mice (see below). The blood was processed by inverting Li-Heparin tube with blood gently 2 or 3 times to mix well. The tubes were then placed in a rack in ice water until able to centrifuge (≤1 hour). As soon as practical, the blood was centrifuged at ˜2000×g for 10 min in a refrigerated centrifuge to obtain plasma. Then, using a 200 μL pipette, the plasma was transferred to a labeled 1.5 ml Eppendorf tube in ice water. The plasma was then frozen in freezer or on dry ice. The samples were stored at −80° C. prior to analysis. Organs were collected from euthanized mice. The organs (lungs, liver, kidney, spleen and heart) were removed, placed in a tube, and immediately frozen in liquid nitrogen. The tubes were then transferred to dry ice. The samples were saved in cryogenic tissue vials. Samples were analyzed by LC-MS/MS using an ABSCIEX 5500 QTRAP LC-MS/MS system with a Hypercarb (PGC) column.

[9] = system: VEE virus; experiment: organism not typed; assay type: cell-based; conditions: Vero
[10] = in vitro; conditions: African green monkey
[11] = Cytotoxicity (CC50) in HG23, norovirus screening; assay type: cell-based; conditions: human, HG23 cells; HG23, norovirus screen
[12] = system: Norovirus GT1; experiment: Norovirus GT1 antiviral screening in HG23; assay type: cell-based
[13] = system: SARS Coronavirus Urbani; experiment: microbe, parasite or virus in culture; assay type: cell-based; conditions: Severe acute respiratory syndrome-related coronavirus, Vero 76

## O=c1nc(NO)ccn1[C@@H]1O[C@H](CO)[C@H](O)C1O (stereo partly drawn) [EIDD-01931, 1-(3,4-dihydroxy-5-(hydroxymethyl)tetrahydrofuran-2-yl)-4-(hydroxyamino)pyrimidin-2-one]
[1]
  tissue distribution (brain, lung, spleen, kidney and liver): well distributed into all tissues tested
[2]; 6 day q.d. IP injections
  NOEL (NO Effect Level): 33 mg/kg
[2]; highest dose tested (100 mg/kg) IP q.d., reversed on cessation of dosing
  body weight effect: weight loss was observed
[3]
  bioavailability: 28%
[4]
  half-life: 2.2 h
[5]
  selectivity index: 8
[6]; after 7 days
  CHIKV RNA copies by PCR (FIG. 8): reduction of CHIKV RNA copies
[6]; daily for 7 days
  footpad swelling (FIG. 7): reduction in footpad swelling
[7]
  CC50: > 500000 nM
[8]; PO 30 mg/kg
  Bioavailability (versus I.P. delivery): 65%
[8]; PO 100 and 300 mg/kg
  Bioavailability (versus I.P. delivery): 39-46%
[8]; female, DBA-1J, mouse, plasma, PO 30 mg/kg
  Cmax: 3 ng/mL
[8]; female, DBA-1J, mouse, plasma, PO 100 mg/kg
  Cmax: 7.7 ng/mL
[8]; female, DBA-1J, mouse, plasma, PO 300 mg/kg
  Cmax: 11.7 ng/mL
[8]; female, DBA-1J, mouse, plasma, after PO dosing, read-out: plasma T1/2
  half-life: 4.1 to 4.7 h
[8]; female, DBA-1J, mouse, plasma, oral gavage, read-out: Tmax after oral dosing
  Tmax: 0.25 to 0.5 h
[8]; female, DBA-1J, mouse, plasma, oral, 100 mg/kg dose
  concentration at 24 hr: ~100 nM
[8]; female, DBA-1J, mouse, plasma, po, 300 mg/kg P.O.
  concentration at 24 hr: ~400 nM
[9]
  EC50: 1000 nM

## O=c1nc(NO)ccn1[C@@H]1O[C@H](CO)C(O)C1O (stereo partly drawn) [drawing 68]
[10]
  CC50: 36 µg/mL (≈ 139 µM)
[11]
  CC50: > 100 µg/mL
[12]
  EC50: > 100 µg/mL
[13]
  EC50: < 0.1 µg/mL

## CC1(O)C(O)[C@@H](CO)O[C@H]1n1ccc(NO)nc1=O (stereo partly drawn)
[10]
  CC50: > 100 µg/mL
[11]
  CC50: > 100 µg/mL
[12]
  EC50: > 100 µg/mL
[13]
  EC50: > 100 µg/mL

Reference: patent US11628181B2, “N4-hydroxycytidine and derivatives and anti-viral uses related thereto” (Emory University, priority 2014, dated 2023)
